The source of these data is ChEMBL document CHEMBL1201862, “PubChem BioAssay data set” (2004).

Holding throughout (experiment): DTP human tumour cell line panel, 48 h
The test system of assay [1] is LOX IMVI.
Assay [2] relates to SW-620.
For assay [3], the system named is SK-MEL-2.
In assay [4] the test system is HOP-62.
Assay [5] has as its system OVCAR-8.
Assay [6] relates to NCI-H23.
For assay [7], the system named is EKVX.
Assay [8] concerns OVCAR-5.
The test system of assay [9] is A549.
The test system of assay [10] is 786-0.
Assay [11] concerns KM-20L2.
Assay [12] relates to SN12C.
Assay [13] relates to RPMI-8226.
The subject of assay [14] is M19-MEL.
Assay [15] has as its system COLO 205.
Assay [16] relates to K562.
Assay [17] relates to HOP-92.

Each structure is given as a SMILES string.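 In this assay, cells in 96-well plates receive the compound at five concentrations for 48 hours. Endpoints are linearly interpolated between the surrounding concentrations. GI50 = concentration required for 50% inhibition of growth.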 Active and inactive are the calls of the source. No stated cut-off is given here; in the data, active = GI50 up to about 1.1 µM and inactive = higher. Bounds are passed on as bounds.

As to `COc1cccc(C2C(C(=O)Nc3cc(=O)n(C)c(=O)n3C)=C(C)NC(C)=C2C(=O)Nc2cc(=O)n(C)c(=O)n2C)c1O`, the GI50 in [1], in assay [2], in assay [3], in [4], in assay [5] and in [6] was > 100 µM (inactive) throughout. For the same compound, the GI50 in assay [7], in assay [8], in assay [9], in assay [10], in assay [11] and in [12] was > 100 µM (inactive) throughout. Also, the GI50 in assay [13] is 66.1 µM (inactive); in [14], > 100 µM (inactive); in assay [15], > 100 µM (inactive); in [16] it was > 100 µM (inactive); in assay [17] it was > 100 µM (inactive).

In the case of `CN(C(=O)C12C3C4C5C3C1(C(=O)O)C5C42)C(C)(C)C` (configuration not stated), the GI50 in assay [1] is 26.1 µM (inactive); in assay [2], 23.9 µM (inactive); in [3] it was > 100 µM (inactive); in assay [4], > 100 µM (inactive); in assay [5], > 100 µM (inactive); in assay [6], > 100 µM (inactive). For the same compound, the GI50 was > 100 µM (inactive) in assay [7]; > 100 µM (inactive) in assay [8]; 42.2 µM (inactive) in assay [9]; > 100 µM (inactive) in assay [10]; > 100 µM (inactive) in assay [11]; > 100 µM (inactive) in assay [12]. The GI50 in [13] is 52 µM (inactive); in [14], > 100 µM (inactive); in assay [15], 28 µM (inactive); in assay [16] it was 44.6 µM (inactive); in assay [17] it was > 100 µM (inactive).

`CN(C)/N=N/c1ccc(S(N)(=O)=O)cc1`: the GI50 in assay [1], in [2], in [3], in assay [4], in assay [5] and in assay [6] was > 100 µM (inactive) in each case. Further, the GI50 in assay [7], in assay [8], in assay [9], in assay [10], in assay [11] and in [12] was > 100 µM (inactive) in each case. In addition, the GI50 in assay [13], in [14], in assay [15], in [16] and in assay [17] was > 100 µM (inactive) throughout.

Regarding `Cc1ccc(S(=O)(=O)C2CC2(Cl)Cl)cc1` (configuration not stated), the GI50 was 15.9 µM (inactive) in assay [1]; 22.3 µM (inactive) in assay [2]; 33.2 µM (inactive) in assay [3]; 20.9 µM (inactive) in [5]; 24.7 µM (inactive) in [6]; > 100 µM (inactive) in assay [7]. In addition, the GI50 in assay [8] was > 100 µM (inactive); in assay [9] it was > 100 µM (inactive); in [10] it was 20.7 µM (inactive); in assay [11], > 100 µM (inactive); in [12], 18.7 µM (inactive); in [14], 25.1 µM (inactive). Besides, the GI50 in assay [15] was 21.6 µM (inactive); in assay [16], 26.5 µM (inactive); in assay [17], 26 µM (inactive).

Take `COC(=O)CCC(=O)CC(=O)C(=O)Nc1c(Cl)cc([N+](=O)[O-])cc1Cl`: the GI50 is 52.1 µM (inactive) in [1]; > 100 µM (inactive) in [3]; > 100 µM (inactive) in [4]; > 100 µM (inactive) in assay [5]; > 100 µM (inactive) in [6]; 51.8 µM (inactive) in [7]. Also, the GI50 in assay [8] is > 100 µM (inactive); in assay [9], > 100 µM (inactive); in assay [10], > 100 µM (inactive); in assay [11], > 100 µM (inactive); in assay [12] it was > 100 µM (inactive); in [13] it was 33.4 µM (inactive). For the same compound, the GI50 in [14] was > 100 µM (inactive); in [15], > 100 µM (inactive); in assay [16] it was > 100 µM (inactive); in assay [17], 38.7 µM (inactive).

In the case of `O=C(O)/C(Cl)=C(\Cl)Nc1cccc(C(F)(F)F)c1`, the GI50 in assay [1], in [2], in assay [4], in [5], in [6] and in assay [7] was > 100 µM (inactive) each time. The GI50 in assay [9], in assay [10], in [11], in assay [12], in assay [14] and in assay [15] was > 100 µM (inactive) each time. Besides, the GI50 in assay [16] was > 100 µM (inactive); in [17] it was 9.2 µM (inactive).

Turning to `Cc1ccccc1C(C#N)/C(=N/NC(=O)c1cc2ccccc2cc1O)C(=O)Nc1cccc(Cl)c1` (configuration not stated), the GI50 in assay [2] is 7.85 µM (inactive); in [3] it was 22.5 µM (inactive); in assay [4], 27.5 µM (inactive); in assay [5], 8.85 µM (inactive); in assay [6] it was 12.4 µM (inactive); in assay [7], 28.8 µM (inactive). In addition, the GI50 in assay [8] is 13.4 µM (inactive); in assay [9] it was 18 µM (inactive); in assay [10], 7.85 µM (inactive); in [11] it was 31.1 µM (inactive); in [12], 35.6 µM (inactive); in assay [13] it was 21.3 µM (inactive). For the same compound, the GI50 is 17.3 µM (inactive) in assay [14], 24.4 µM (inactive) in assay [15], 9.64 µM (inactive) in assay [16] and 26.4 µM (inactive) in [17].

For `C[C@@H]1OC(=O)N2CCCC(=C3SCCCS3)C12` (some centres not stated), the GI50 was 94 µM (inactive) in [1]; > 100 µM (inactive) in [2]; > 100 µM (inactive) in [3]; 57.9 µM (inactive) in assay [5]; 64 µM (inactive) in assay [6]; > 100 µM (inactive) in assay [7]. In addition, the GI50 in [8] was > 100 µM (inactive); in assay [9] it was 78.5 µM (inactive); in assay [10] it was > 100 µM (inactive); in [11], 93.8 µM (inactive); in [12], > 100 µM (inactive); in assay [13], 36.9 µM (inactive). Besides, the GI50 in assay [14] was 45.6 µM (inactive); in assay [15] it was > 100 µM (inactive); in [16], 43.6 µM (inactive); in [17], 29.6 µM (inactive).

As to `COc1ccc(-c2nc3c(nc2-c2ccc(OC)cc2)N(C)S(=O)(=O)N=C3N)cc1`, the GI50 was 15.5 µM (inactive) in assay [1]; 28.8 µM (inactive) in assay [2]; 20.5 µM (inactive) in [3]; 33.6 µM (inactive) in [4]; 34.2 µM (inactive) in assay [5]; 28.7 µM (inactive) in [6]. The GI50 in assay [8] was 25.2 µM (inactive); in [9], 27 µM (inactive); in assay [10], 16.9 µM (inactive); in [11], 40.6 µM (inactive); in assay [12], 41 µM (inactive); in [13] it was 10.6 µM (inactive). For the same compound, the GI50 in [14] is 31.5 µM (inactive); in [15], 14.7 µM (inactive); in assay [16], 24.4 µM (inactive); in assay [17], 13.6 µM (inactive).

In the case of `C[n+]1c2ccccc2c(CNCC(=O)O)c2ccccc21`, the GI50 is 0.571 µM (active) in [2]; 2.43 µM (inactive) in assay [3]; 6.27 µM (inactive) in [4]; 2.75 µM (inactive) in assay [5]; 6.95 µM (inactive) in assay [6]; 2.56 µM (inactive) in assay [7]. The GI50 in assay [8] was 15.2 µM (inactive); in assay [9] it was 3.76 µM (inactive); in assay [10] it was 1.17 µM (inactive); in [11], 0.327 µM (active); in [12], 0.562 µM (active); in [13], 0.29 µM (active). In addition, the GI50 was 4.43 µM (inactive) in [14], 0.418 µM (active) in assay [15], 0.504 µM (active) in assay [16] and 0.929 µM (active) in assay [17].

Consider `Cc1ccc(S(=O)(=O)NC2(C=O)CCC(C(C)(C)C)CC2)cc1` (configuration not stated), for which the GI50 in assay [2] is 70.3 µM (inactive); in assay [3], 44.6 µM (inactive); in assay [4] it was > 100 µM (inactive); in assay [5] it was 36.5 µM (inactive); in assay [6] it was 31.2 µM (inactive); in assay [7], 38.1 µM (inactive). The GI50 in assay [8] is 79.3 µM (inactive); in [9], 35.1 µM (inactive); in assay [10], 37.9 µM (inactive); in [11], 28.8 µM (inactive); in assay [12] it was 26.1 µM (inactive); in assay [13], 19.1 µM (inactive). In addition, the GI50 in assay [14] was 24.7 µM (inactive); in assay [15] it was 26.7 µM (inactive); in assay [16], 28.8 µM (inactive); in [17], 30.7 µM (inactive).

In the case of `O=C1C(N2C(=O)c3ccccc3C2=O)CN1C(COCc1ccccc1)c1ccc(OCc2ccccc2)cc1` (configuration not stated), the GI50 in assay [1], in assay [2], in assay [4], in [5], in assay [6] and in assay [7] was > 100 µM (inactive) in each case. The GI50 in assay [8], in [9], in [10], in [11], in assay [12] and in [13] was > 100 µM (inactive) in each case. Further, the GI50 in assay [14], in [15], in assay [16] and in assay [17] was > 100 µM (inactive) throughout.

As usually defined, the GI50 is the concentration giving 50% growth inhibition.
